Assay results taken from PMC3466270 (PLoS ONE, 2012).

Target: RSL lectin (fucose binding lectin RSL) (Ralstonia pseudosolanacearum, UniProt Q8XXK6)
Assay: biochemical

CO[C@@H]1O[C@@H](C)[C@@H](O)[C@@H](O)[C@@H]1O [α-L-Me-fucoside]
Kd: 600 nM
